Measurements published in article PMC6636992 (Science Advances, 2019).
Ends that are not written are not given here. * marks the point of attachment. Isobutyryl(2-OH) = CC(C)(O)C(=O)*

How the values were obtained:
[1] = system: recombinant ENO; format: biochemical, P. mirabilis; conditions: NAM 10 mM with CobB and NAD^+, 25°C, 10 hours, Western blotting
[2] = system: CobB; assay: LC-MS detection of deacylation of gpmA peptides by CobB; format: biochemical, P. mirabilis
[3] = system: P. mirabilis; assay: Growth curve of overexpressing P. mirabilis; format: cell-based; conditions: ENO WT or mutant-overexpressing P. mirabilis, OD600, 37°C
[4] = system: WT CobB; assay: De-2-hydroxyisobutyrylation kinetics by MALDI-TOF MS, WT CobB; format: biochemical, P. mirabilis
[5] = system: Y55F CobB; assay: De-2-hydroxyisobutyrylation kinetics by MALDI-TOF MS, Y55F CobB; format: biochemical, P. mirabilis
[6] = system: R58M mutant CobB; assay: LC-MS detection of deacylation of gpmA peptides by R58M mutant CobB; format: biochemical, P. mirabilis; conditions: 50 μM peptide, 1 μM CobB, 1 mM NAD^+, pH 8.5, 37°C, 2 hours
[7] = system: R58M CobB; assay: ITC affinity of Khib peptide with R58M CobB; format: binding, P. mirabilis; conditions: 37°C
[8] = target: recombinant CobB (WT) (P. mirabilis); assay: ITC
[9] = target: R58M CobB (P. mirabilis); assay: ITC
[10] = target: Y55F CobB (P. mirabilis); assay: ITC
[11] = Km for peptide, MALDI-TOF MS, 1 mM NAD^+, pH 8.5, 37°C, 2 min
[12] = MALDI-TOF MS, 1 mM NAD^+, pH 8.5, 37°C, 2 min, 2-285 μM peptide

In the case of `NC(=O)c1cccnc1` [NAM, nicotinamide], the “change of modifications of ENO with NAD^+ and NAM” value [1] is reported as “no significant change in the modifications of ENO”, the “inhibitory effect on removal of Khib relative to other acyl groups” value ([2]; NAM 10 mM) is reported as “greatest inhibitory effect on Khib” and the “inhibitory effect on removal of Ksucc relative to other acyl groups” value ([2]; NAM 10 mM) is reported as “least effect on Ksucc”. The “inhibition of de-2-hydroxyisobutyrylation reaction” value ([2]; NAM 10 mM, 50 μM peptide, 1 μM CobB) was “inhibited efficiently”.

With ENO-K326Q/K343T the growth rate [3] was “the lowest”.

For “ENO: enolase of P. mirabilis, His-tagged fusion protein”, the growth rate [3] was “faster than that of mutated ENO-overexpressing P. mirabilis”.

For YGDEQVK(hib)QWR, the kcat/Km [4] was 1.7e+10 M⁻¹ s⁻¹, the Km [4, 11] was 13.3 ± 1.6 µM and the kcat [4, 12] was 0.225 ± 0.011 s⁻¹. For the same molecule, the kcat/Km [5] was 8.3e+09 M⁻¹ s⁻¹, the Km [5, 11] was 12.2 ± 2 µM and the kcat [5, 12] was 0.101 ± 0.006 s⁻¹. For the same molecule, the “deacylated peptide after treatment with R58M mutant” value [6] was “not detectable”, the “change of affinity of R58M CobB compared with WT CobB” value [7] was “significantly decreased eight times” and the “hydrolysis by CobB in the presence of NAD^+” value ([2]; 50 μM peptide, 1 μM CobB, 1 mM NAD^+, pH 8.5, 37°C, 2 hours) was “efficiently catalyzed the hydrolysis”. The “de-2-hydroxyisobutyrylated peptide without NAD^+” value ([2]; 50 μM peptide, 1 μM CobB, without NAD^+) was “not detected”.

In the case of YGDEQVK(Isobutyryl(2-OH))QWR [2-hydroxyisobutyrylated peptide [YGDEQVK(hib)QWR]], the Kd [8] is reported as 2.03 µM, the Kd [9] is reported as 15.9 µM and the Kd [10] is reported as 2.34 µM.
